Measured values reported in US12156523B2 (priority 2017, dated 2024).

tested on: Pyricularia oryzae; experiment: whole plant or invertebrate; assay type: in vivo; conditions: soil, read-out: Control value (number of lesions at the second leaf)

SMILES | pest or weed control at 10 µg/mL [%]
CC(C)Oc1cccc(N(C)C(=O)c2cc(F)nc(F)c2F)c1 [Example 1-1] | ≥ 80
CN(C(=O)c1cc(F)nc(F)c1F)c1ccccc1 [Example 1-2] | ≥ 80
O=C(Nc1c(F)c(F)c(C(F)(F)F)c(F)c1F)c1cc(F)nc(F)c1F [Example 1-4] | ≥ 80
O=C(Nc1cccc(Cl)c1Cl)c1cc(F)nc(F)c1F [Example 1-5] | ≥ 80
Cc1cccc(C)c1NC(=O)c1cc(F)nc(F)c1F [Example 1-7] | ≥ 80
O=C(Nc1ccc2c(c1)OCCO2)c1cc(F)nc(F)c1F [Example 1-9] | ≥ 80
O=C(NC1=NCCS1)c1cc(F)nc(F)c1F [Example 1-12] | ≥ 80
Cc1ccccc1NC(=O)c1cc(F)nc(F)c1F [Example 1-14] | ≥ 80
O=C(Nc1cnccn1)c1cc(F)nc(F)c1F [Example 1-15] | ≥ 80
O=C(Nc1ccccn1)c1cc(F)nc(F)c1F [Example 1-16] | ≥ 80
O=C(Nc1ncccn1)c1cc(F)nc(F)c1F [Example 1-17] | ≥ 80
COc1cc(NC(=O)c2cc(F)nc(F)c2F)cc(OC)c1OC [Example 1-20] | ≥ 80
O=C(Nc1ccc(F)c(F)c1)c1cc(F)nc(F)c1F [Example 1-21] | ≥ 80
COc1ccc(NC(=O)c2cc(F)nc(F)c2F)cc1OC [Example 1-22] | ≥ 80
O=C(Nc1cc(Cl)cc(Cl)c1)c1cc(F)nc(F)c1F [Example 1-24] | ≥ 80
COc1cc(NC(=O)c2cc(F)nc(F)c2F)cc(OC)c1 [Example 1-25] | ≥ 80
Cc1cc(C)cc(NC(=O)c2cc(F)nc(F)c2F)c1 [Example 1-26] | ≥ 80
O=C(Nc1cccc(Cc2ccccc2)c1)c1cc(F)nc(F)c1F [Example 1-27] | ≥ 80
Cc1ccc(NC(=O)c2cc(F)nc(F)c2F)cc1Br [Example 1-28] | ≥ 80
O=C(Nc1ccc(F)c(Cl)c1)c1cc(F)nc(F)c1F [Example 1-29] | ≥ 80
N#Cc1ccccc1NC(=O)c1cc(F)nc(F)c1F [Example 1-35] | ≥ 80
CCOC(=O)c1cccc(NC(=O)c2cc(F)nc(F)c2F)c1 [Example 1-37] | ≥ 80
Cc1ccc(NC(=O)c2cc(F)nc(F)c2F)cc1F [Example 1-39] | ≥ 80
Cc1ccc(NC(=O)c2cc(F)nc(F)c2F)cc1I [Example 1-40] | ≥ 80

SMILES | pest or weed control at 10 µg/mL [%]
Cc1cccc(NC(=O)c2cc(F)nc(F)c2F)c1 [Example 1-46] | ≥ 80
O=C(Nc1cccc(Oc2ccccc2)c1)c1cc(F)nc(F)c1F [Example 1-47] | ≥ 80
O=C(Nc1cccnn1)c1cc(F)nc(F)c1F [Example 1-48] | ≥ 80
CC(C)(C)Oc1cccc(NC(=O)c2cc(F)nc(F)c2F)c1 [Example 1-50] | ≥ 80
O=C(Nc1nc[nH]n1)c1cc(F)nc(F)c1F [Example 1-51] | ≥ 80
O=C(Nc1cccc(OC(F)(F)F)c1)c1cc(F)nc(F)c1F [Example 1-52] | ≥ 80
O=C(Nc1ccc(Cl)cc1)c1cc(F)nc(F)c1F [Example 1-54] | ≥ 80
N#Cc1ccc(NC(=O)c2cc(F)nc(F)c2F)cc1 [Example 1-55] | ≥ 80
CCOC(=O)c1ccc(NC(=O)c2cc(F)nc(F)c2F)cc1 [Example 1-56] | ≥ 80
CCOc1ccc(NC(=O)c2cc(F)nc(F)c2F)cc1 [Example 1-57] | ≥ 80
Cc1cc(NC(=O)c2cc(F)nc(F)c2F)ccc1F [Example 1-58] | ≥ 80
COc1ccc(NC(=O)c2cc(F)nc(F)c2F)cc1 [Example 1-61] | ≥ 80
COc1cc(NC(=O)c2cc(F)nc(F)c2F)ccc1C [Example 1-63] | ≥ 80
Cc1ccc(NC(=O)c2cc(F)nc(F)c2F)cc1[N+](=O)[O-] [Example 1-64] | ≥ 80
Cc1ccc(NC(=O)c2cc(F)nc(F)c2F)cc1C(F)(F)F [Example 1-65] | ≥ 80
Cc1ccc(NC(=O)c2cc(F)nc(F)c2F)cc1 [Example 1-66] | ≥ 80
O=C(Nc1ccc([N+](=O)[O-])cc1)c1cc(F)nc(F)c1F [Example 1-67] | ≥ 80
O=C(Nc1ccc(Oc2ccccc2)cc1)c1cc(F)nc(F)c1F [Example 1-68] | ≥ 80
CC(C)(C)Oc1ccc(NC(=O)c2cc(F)nc(F)c2F)cc1 [Example 1-70] | ≥ 80
CC(C)(C)c1ccc(NC(=O)c2cc(F)nc(F)c2F)cc1 [Example 1-71] | ≥ 80
Cc1cc(NC(=O)c2cc(F)nc(F)c2F)no1 [Example 1-73] | ≥ 80
Cc1cnc(NC(=O)c2cc(F)nc(F)c2F)s1 [Example 1-74] | ≥ 80
O=C(NCCO)c1cc(F)nc(F)c1F [Example 1-78] | ≥ 80
O=C(NCCS)c1cc(F)nc(F)c1F [Example 1-79] | ≥ 80

SMILES | pest or weed control at 10 µg/mL [%]
O=C(NC(CO)c1ccccc1)c1cc(F)nc(F)c1F (stereo not shown) [Example 1-81] | ≥ 80
CC(NC(=O)c1cc(F)nc(F)c1F)c1ccc(Cl)cc1 (stereo not shown) [Example 1-84] | ≥ 80
CC(NC(=O)c1cc(F)nc(F)c1F)c1ccccc1 (stereo not shown) [Example 1-85] | ≥ 80
O=C(NCCBr)c1cc(F)nc(F)c1F [Example 1-87] | ≥ 80
CCCNC(=O)c1cc(F)nc(F)c1F [Example 1-88] | ≥ 80
N#CCNC(=O)c1cc(F)nc(F)c1F [Example 1-91] | ≥ 80
CNC(=O)c1cc(F)nc(F)c1F [Example 1-92] | ≥ 80
CCCCCCCCNC(=O)c1cc(F)nc(F)c1F [Example 1-96] | ≥ 80
O=C(NCc1ccccc1)c1cc(NC(=O)c2cc(F)nc(F)c2F)ccc1Cl [Example 1-99] | ≥ 80
O=C(OCc1ccccc1Cl)c1cc(F)nc(F)c1F [Example 1-100] | ≥ 80
O=C(OCc1snc(Cl)c1Cl)c1cc(F)nc(F)c1F [Example 1-104] | ≥ 80
O=C(Oc1ccc(Cl)cc1)c1cc(F)nc(F)c1F [Example 1-107] | ≥ 80
N#Cc1ccc(OC(=O)c2cc(F)nc(F)c2F)cc1 [Example 1-108] | ≥ 80
COc1ccc(COC(=O)c2cc(F)nc(F)c2F)cc1 [Example 1-109] | ≥ 80
Cc1ccc(COC(=O)c2cc(F)nc(F)c2F)cc1 [Example 1-110] | ≥ 80
Cc1ccc(OC(=O)c2cc(F)nc(F)c2F)cc1 [Example 1-111] | ≥ 80
O=C(Oc1ccc([N+](=O)[O-])cc1)c1cc(F)nc(F)c1F [Example 1-112] | ≥ 80
O=C(OCc1ccccc1)c1cc(F)nc(F)c1F [Example 1-114] | ≥ 80
CC(OC(=O)c1cc(F)nc(F)c1F)C(F)(F)F (stereo not shown) [Example 1-115] | ≥ 80
CCOC(=O)c1cc(F)nc(F)c1F [Example 1-117] | ≥ 80
CC(C)OC(=O)c1cc(F)nc(F)c1F [Example 1-118] | ≥ 80
C#CCOC(=O)c1cc(F)nc(F)c1F [Example 1-119] | ≥ 80
O=C(OCC(F)(F)F)c1cc(F)nc(F)c1F [Example 1-120] | ≥ 80
O=C(OCC=C(Cl)Cl)c1cc(F)nc(F)c1F [Example 1-122] | ≥ 80

SMILES | pest or weed control at 10 µg/mL [%]
CCCOC(=O)c1cc(F)nc(F)c1F [Example 1-123] | ≥ 80
O=C(OC/C=C/c1ccccc1)c1cc(F)nc(F)c1F [Example 1-124] | ≥ 80
CCOC(=O)COC(=O)c1cc(F)nc(F)c1F [Example 1-125] | ≥ 80
CCCCCCCCOC(=O)c1cc(F)nc(F)c1F [Example 1-127] | ≥ 80
O=C(Sc1ccccc1)c1cc(F)nc(F)c1F [Example 1-130] | ≥ 80
O=C(NCc1ccccc1)c1cc(F)nc(F)c1 [Example 1-140] | ≥ 80
CC(NC(=O)c1cc(F)nc(F)c1)c1ccc(Cl)cc1 (stereo not shown) [Example 1-141] | ≥ 80
O=C(Nc1ccccc1)c1cc(F)nc(F)c1 [Example 1-143] | ≥ 80
CC(=O)Oc1ccccc1COC(=O)c1cc(F)nc(F)c1 [Example 1-145] | ≥ 80
O=C(Nc1ccccc1)c1ccnc(C(F)(F)F)c1 [Example 1-146] | ≥ 80
CCOC(=O)c1ccnc(C(F)(F)F)c1 [Example 1-147] | ≥ 80
O=C(OC/C=C\COC(=O)c1cc(F)nc(F)c1F)c1cc(F)nc(F)c1F [Example 1-151] | ≥ 80
O=C(OC/C=C/COC(=O)c1cc(F)nc(F)c1F)c1cc(F)nc(F)c1F [Example 1-152] | ≥ 80
O=C(Nc1ccc(Cl)cc1)c1cc(F)nc(F)c1 [Example 1-153] | ≥ 80
O=C(Nc1ccc(Cl)c(Cl)c1)c1cc(F)nc(F)c1 [Example 1-155] | ≥ 80
C=CCNC(=O)c1cc(F)nc(F)c1 [Example 1-159] | ≥ 80
CCCCCCc1ccc(NC(=O)c2cc(F)nc(F)c2)cc1 [Example 1-181] | ≥ 80
C#CCOC(=O)c1cc(F)nc(F)c1 [Example 1-182] | ≥ 80
CCCOC(=O)c1cc(F)nc(F)c1 [Example 1-184] | ≥ 80
CCOC(=O)c1cc(F)nc(F)c1 [Example 1-185] | ≥ 80
CCc1ccc(OC(=O)c2cc(F)nc(F)c2)cc1 [Example 1-186] | ≥ 80
C=CCOC(=O)c1cc(F)nc(F)c1 [Example 1-188] | ≥ 80
